One series relates to HIV. Particulars: cited from earlier work; for pEC50: read-out: HIV inhibitory activity EC50.
A short description of series [1]: stability of crystal forms on storage, drying or heating, checked by XRPD. In kind it is physicochemical. The protocol: The type XVI crystal was heated to 55° C. in a nitrogen atmosphere and held for 2 to 24 h.
The type XVI crystal and the type XVII crystal were left at 60±5° C. for 5 days, respectively.
The type XVII crystal was left for 5 days under the conditions of 25° C. and 92.5±5% humidity.
The type XVIII crystal was heated to 150° C. or left for 24 h under the conditions of 25° C. and 92.5±5% humidity.
The crystal suffered from a weight loss of 13.2% when heated to 110° C., and a weight loss of 3.5% when further heated to 200° C. Three endothermic signals occurred in the range of 80° C. to 140° C. The type I crystal was heated to 55° C. under nitrogen protection and then cooled to room temperature. The sample was removed and exposed to air to test XRPD.
As the type II crystal was unstable and had been transformed after dying for a short period of time, no further studies were carried out on the type II crystal.
Under the conditions of nitrogen protection, the type IV crystal was heated to 141° C. and then tested for XRPD.
The type V crystal was subjected to the variable-temperature XRPD test.
The type VI crystal was heated to 160° C. under the nitrogen protection.
Under the nitrogen protection, the type VII crystal was heated to 130° C. and then cooled to room temperature. The sample was removed and exposed to the air to test XRPD.
Under the nitrogen protection, the type VIII crystal was heated to 160° C. and then cooled to room temperature. The sample was removed and exposed to the air to test XRPD.
The crystal was heated to 95° C. under nitrogen protection and then cooled to room temperature. The sample was removed and exposed to the air to test XRPD. […] The crystal was heated to 160° C. under the same conditions of nitrogen protection and then cooled to room temperature. The sample was removed and exposed to the air to test XRPD.
The type X crystal was subjected to the variable-temperature XRPD test.
The samples open dried at room temperature were characterized by TGA/DSC.
Meanwhile, the type XIII crystal was coated to test XRPD, and new type XIV crystal could be observed.

For series [2] the following is noted: within the tested dose range; read-out: cytotoxicity CC50; cited from earlier work.
Series [3] can be described thus: LC-MS detection of chemical changes in the crystal. The class given is physicochemical. The following applies: obtained from type XVI crystal left at 60° C. for 5 days. The protocol:
The type XVI crystal was left at 60° C. for 5 days to obtain a type XVIII crystal, which was an anhydrous crystal.

Setting [4] is: heated to 160° C. under nitrogen protection.

Molecules are shown by their SMILES. pEC50: −log10 of the molar value. A value given as a limit tells only on which side of the number the result lay.

As for `C#C[C@]1(CO)O[C@@H](n2cnc3c(N)ncnc32)C[C@@H]1O` [EdA, 4′-ethynyl-2′-deoxyadenosine], in the series with HIV, the pEC50 was 7.96.

Turning to `C#C[C@]1(CO)O[C@@H](n2cnc3c(N)nc(F)nc32)[C@@H](F)[C@@H]1O` [type XIII crystal], the “crystal form in solvent environment” value in series [1] (left in a solvent environment at room temperature) was “transformed into the type XIV crystal”. Moreover, in series [1] (open dried at room temperature for about 2 h), the “crystal form after open drying” value is “crystal form was transformed”.

For the compound `C#C[C@]1(CO)O[C@@H](n2cnc3c(N)nc(F)nc32)[C@@H](F)[C@@H]1O` [type XIV crystal], the “crystal form after removal from solvent” value in series [1] (removed from the solvent environment) was “transformed into the type XIII crystal”.

As for `C#C[C@]1(CO)O[C@@H](n2cnc3c(N)nc(F)nc32)C[C@@H]1O` [Compound 1], the pEC50 with HIV was 10.30. Besides, the “increase of HIV inhibitory activity by introduction of 2-fluorine” value in the series with HIV (versus 4′-ethynyl-2′-deoxyadenosine (EdA)) was 2200 times.

As to `C#C[C@]1(CO)O[C@@H](n2cnc3c(N)nc(F)nc32)[C@@H](F)[C@@H]1O` [type XVI crystal], in series [1] (heated to 55° C. in nitrogen atmosphere, held 2 to 24 h), the “crystal form by XRPD after heating” value was “type XVII crystal was also obtained”. Also, the “crystal form by XRPD after storage” value in series [1] (left at 60±5° C. for 5 days) is “transformed into the type XVIII crystals”. Also, in series [1] (vacuum drying at room temperature for 24 h), the “crystal form after vacuum drying” value is “transformed into a monohydrate crystal form—type XVII crystal”.

On to `C#C[C@]1(CO)O[C@@H](n2cnc3c(N)nc(F)nc32)[C@@H](F)[C@@H]1O` [type XVII crystal], for which the “crystal form after drying” value in series [1] (dried at 90° C. for 1 to 24 h) was “obtain the type XVIII crystal”. In series [1] (left for 5 days at 25° C. and 92.5±5% humidity), the “crystal form by XRPD after storage” value is reported as “type XVI crystal was obtained”.

With `C#C[C@]1(CO)O[C@@H](n2cnc3c(N)nc(F)nc32)[C@@H](F)[C@@H]1O` [type IX crystal], the XRPD after heating entry in series [1] (heated to 95° C. under nitrogen, cooled to room temperature, exposed to air) was “degree of crystallinity was further decreased”; in series [1] (setting [4]) it was “crystal form had been transformed”. Also, the “crystallinity after closed storage” value in series [1] (left closed at room temperature for about 3 days) is listed as “reduced degree of crystallinity”.

Regarding `C#C[C@]1(CO)O[C@@H](n2cnc3c(N)nc(F)nc32)[C@@H](F)[C@@H]1O` [type XV crystal], in series [1] (heated to 120° C.), the “crystal form after heating” value was “crystal form was transformed”.

As to `C#C[C@]1(CO)O[C@@H](n2cnc3c(N)nc(F)nc32)[C@@H](F)[C@@H]1O` [compound (3), (2R,3R,4S,5R)-5-(6-amino-2-fluoro-9H-purin-9-yl)-2-ethynyl-4-fluoro-2-(hydroxymethyl)tetrahydrofuran-3-ol], the pEC50 in the series with HIV is 9.05. Moreover, the CC50 in series [2] is more than 8000 nM.

Take `C#C[C@]1(CO)O[C@@H](n2cnc3c(N)nc(F)nc32)[C@@H](F)[C@@H]1O` [type X crystal]: the “variable-temperature XRPD” value in series [1] (further heated to 130° C.) is reported as “diffraction peak intensity was significantly reduced”; in series [1] (further heated to 145° C.), “crystal form was transformed”; in series [1] (heated to 120° C. while purging with nitrogen), “position of the diffraction peak shifted”.

For `C#C[C@]1(CO)O[C@@H](n2cnc3c(N)nc(F)nc32)[C@@H](F)[C@@H]1O` [type II crystal], in series [1] (vacuum drying at room temperature for half an hour), the “crystal form after vacuum drying” value is “transformed into a type III crystal”.

`C#C[C@]1(CO)O[C@@H](n2cnc3c(N)nc(F)nc32)[C@@H](F)[C@@H]1O` [type VI crystal]: the XRPD after heating entry in series [1] (setting [4]) is reported as “crystal form was transformed”.

For the compound `C#C[C@]1(CO)O[C@@H](n2cnc3c(N)nc(F)nc32)[C@@H](F)[C@@H]1O` [type IV crystal], the “stability by TGA” value in series [1] (120° C.) is listed as “unstable”. For the same compound, the “XRPD of dried crystal after closed storage” value in series [1] (dried crystal left closed at room temperature for about 5 days) is “increased relative intensity of the diffraction peaks and increased number of diffraction peaks”. The XRPD after heating entry in series [1] (heated to 141° C. under nitrogen protection) is listed as “transformed into a stable type III crystal”. In series [1] (vacuum dried at room temperature for 15 min), the “XRPD after vacuum drying” value was “decreased relative intensity of the diffraction peaks”.

`C#C[C@]1(CO)O[C@@H](n2cnc3c(N)nc(F)nc32)[C@@H](F)[C@@H]1O` [type XVIII crystal]: the “crystal form by XRPD after heating” value in series [1] (heated to 150° C.) was “crystal form did not change”. The “crystal form by XRPD after storage” value in series [1] (left for 24 h at 25° C. and 92.5±5% humidity) was “crystal form did not change”. Moreover, the “chemical changes by LC-MS” value in series [3] was “did not undergo chemical changes”.

Take `C#C[C@]1(CO)O[C@@H](n2cnc3c(N)nc(F)nc32)[C@@H](F)[C@@H]1O` [type VII crystal]: in series [1] (heated to 130° C. under nitrogen, cooled to room temperature, exposed to air), the XRPD after heating result is listed as “crystal form was transformed”.

Regarding `C#C[C@]1(CO)O[C@@H](n2cnc3c(N)nc(F)nc32)[C@@H](F)[C@@H]1O` [type V crystal], the “variable-temperature XRPD” value in series [1] (further heated to 154° C.) is listed as “transformed into another crystal”; in series [1] (heated to 90° C. and 130° C. under nitrogen), “substantially transformed into an amorphous crystal”. In addition, the “variable-temperature XRPD, nitrogen purge” value in series [1] (purged with nitrogen for about 20 min) was “significant decrease in degree of crystallinity”.

With `C#C[C@]1(CO)O[C@@H](n2cnc3c(N)nc(F)nc32)[C@@H](F)[C@@H]1O` [type I crystal], the XRPD after heating entry in series [1] (heated to 55° C. under nitrogen, cooled to room temperature, exposed to air) is listed as “diffraction peak intensity of the sample was somewhat decreased”; in series [1] (heated to 100° C. under nitrogen protection), “transformed into an amorphous crystal”.

Regarding `C#C[C@]1(CO)O[C@@H](n2cnc3c(N)nc(F)nc32)[C@@H](F)[C@@H]1O` [type XII crystal], the “crystal form after vacuum drying” value in series [1] (vacuum drying at room temperature for 10 min) was “transformed into an amorphous crystal”.

Usually pEC50 stands for the negative decadic logarithm of the EC50, by convention in mol/L. One may read the CC50 as the concentration at which the toxic effect on the cells reaches its halfway point.

The record behind these values is US20250074934A1, “CRYSTAL OF 4’-SUBSTITUTED NUCLEOSIDE, AND PREPARATION METHOD THEREFOR, COMPOSITION THEREOF AND USE THEREOF” (HENAN GENUINE BIOTECH CO., LTD., priority 2022, published 2025).
